Assay results as given in patent US20110112148A1, “INDOLINE COMPOUNDS” (Ferrer Internacional S.A., priority 2007, published 2011).

Target: T1, recombinant human MT1 receptor (Homo sapiens, UniProt P48039)
T1 construct: expressed in transfected cells; host or cells: unnamed cell line co-expressing mitochondrial apoaequorin and the Galpha16 subunit
Assay: Agonist activity on MT1 receptors (aequorin luminescence, Gα16 co-expressing cell line)
Assay type: cell-based
Details: percentage activity with respect to the reference agonist at its EC100; for MT1 agonism, 1 nm: compound at 1 nm; for MT1 agonism, 100 nm: compound at 100 nm
Source text: Determination of the Agonist Activity on MT1 Receptors
In order to screen compounds for the MT1 receptor a cell line is used that is characterised by stable overexpression of the recombinant human MT1 receptor in a cell line that in turn co-expresses mitochondrial apoaequorin and the Gα16 subunit.
The Ga16 subunit belongs to the G protein family, formed by GPCR, wherein the transduction of intracellular signals occurs via phospholipase (PLC). PLC activation produces an increase in inositol-triphosphate levels that leads to an increase in intracellular calcium. Ga16 overexpression thus allows an increase in intracellular calcium levels that is independent and compatible with the study receptor's own signal transduction pathway.
Following its binding to calcium, the aequorin oxidises coelenterazine to coelenteramide, a reaction that releases CO2 and light.
The trial protocol for the screening of possible agonists consists in collecting the cells and keeping them in suspension overnight in the presence of coelenterazine in order to reconstitute aequorin. On the following day the cells are injected on a plate where the compounds to be screened are diluted, and the luminescence released is read immediately. When wishing to study the possible antagonism of the same compounds, the reference agonist compound is added in the same well after 15-30 min from the first injection and the luminescence released is assessed.
Agonist activity is calculated as percentage activity with respect to the reference agonist at the concentration corresponding to its EC100. Antagonist activity is expressed as percentage inhibition over the reference agonist activity at the concentration corresponding to its EC80.

T1 sequence (P48039 whole entry): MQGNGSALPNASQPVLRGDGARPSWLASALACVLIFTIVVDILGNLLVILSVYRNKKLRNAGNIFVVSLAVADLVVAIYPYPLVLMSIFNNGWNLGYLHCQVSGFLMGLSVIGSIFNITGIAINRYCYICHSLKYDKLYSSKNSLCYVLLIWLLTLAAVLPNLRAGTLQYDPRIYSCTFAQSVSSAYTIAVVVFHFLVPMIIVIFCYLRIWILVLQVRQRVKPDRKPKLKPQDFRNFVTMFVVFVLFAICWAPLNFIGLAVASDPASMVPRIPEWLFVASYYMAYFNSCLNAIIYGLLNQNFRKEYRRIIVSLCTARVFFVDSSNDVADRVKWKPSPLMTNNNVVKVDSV

SMILES	MT1 agonism, 1 nm [%]	MT1 agonism, 100 nm [%]
COc1ccc2c(c1)N(CCNC(C)=O)CC2 [Example 1, N-[2-(6-methoxy-2,3-dihydro-indol-1-yl)-ethyl]-acetamide]	13.1	92
COc1ccc2c(c1)N(CCNC(=O)C(F)(F)F)CC2 [Example 4, 2,2,2-trifluoro-N-[2-(6-methoxy-2,3-dihydro-indol-1-yl)-ethyl]-acetamide]	14.6	94
COc1ccc2c(c1)N(C(C)CNC(C)=O)CC2 (centres unmarked) [Example 5, N-[2-(6-methoxy-2,3-dihydro-indol-1-yl)-propyl]-acetamide]	11.5	89.8
CC(=O)NCCN1CCc2ccc3c(c21)CCO3 [N-[2-(2,3,7,8-tetrahydro-1H-furo[2,3-g]indol-1-yl)-ethyl]-acetamide, reference compound]	13.9	76.6
